According to US20090082337A1, “Compositions Comprising Quinolone and Methods for Treating or Controlling Infections” (priority 2007, published 2009):
Converted amounts (≈) assume the structure as drawn.

How the values were obtained:
Type in all cases: cell-based
[1] = tested on: Acinetobacter calcoaceticus (IFO 12552); experiment: In vitro anti-bacterial activity (MIC90), Gram-negative bacteria; conditions: IFO12552, Gram-negative reference strain
Description: (§1) In yet another aspect, said another quinolone has a MIC90 value for a Gram-negative bacterium that is lower than that of the fluoroquinolone having Formula I, II, III, IV, V, VI, VII, or VIII for the same bacterium, said fluoroquinolone being included in the composition. MIC90 is the minimum concentration of the active compound required to inhibit ninety percent of the growth of a specified pathogen, in μg/ml.
(§2) Anti-bacterial activity of the compound having Formula IV was tested against several Gram-negative reference bacteria strains and compared to the anti-bacterial activity of three commercially available antibiotics (nadifloxacin, ofloxacin, and sparfloxacin). The results are shown in Table 2 as MIC90 values (minimum concentration of the active compound required to inhibit ninety percent of the growth of a specified pathogen, in μg/ml).

[2] = tested on: Enterobacter aerogenes (IFO 13534); experiment: as above; conditions: Klebsiella aerogenes, IFO13534, Gram-negative reference strain
Description: as §1, §2

Escherichia coli (O-1) = experiment: as above; conditions: Gram-negative reference strain
Description: as §1, §2

[3] = tested on: Klebsiella pneumoniae (IFO 13541); experiment: as above; conditions: IFO13541, Gram-negative reference strain
Description: as §1, §2

[4] = tested on: Proteus mirabilis (IFO 13300); experiment: as above; conditions: IFO13300, Gram-negative reference strain
Description: as §1, §2

Proteus rettgeri = experiment: as above; conditions: Providencia rettgeri, Gram-negative reference strain
Description: as §1, §2

[5] = tested on: Pseudomonas aeruginosa (ATCC 27853); experiment: as above; conditions: ATCC27853, Gram-negative reference strain
Description: as §1, §2

[6] = tested on: Pseudomonas aeruginosa (IFO 13736); experiment: as above; conditions: IFO13736, Gram-negative reference strain
Description: as §1, §2

[7] = tested on: Serratia marcenscens (NHL); experiment: as above; conditions: Gram-negative reference strain
Description: as §1, §2

Shigella flexneri (2b) = experiment: as above; conditions: Gram-negative reference strain
Description: as §1, §2

[8] = tested on: Bacillis subtilis (ATCC 6633); experiment: In vitro anti-bacterial activity (MIC90), Gram-positive bacteria; conditions: Gram-positive reference strain
Description: as §1, with “μg/ml. Anti-bacterial activity of the compound having Formula […] was tested against several Gram-positive reference bacteria strains and compared to the anti-bacterial activity of three commercially available antibiotics (nadifloxacin, ofloxacin, and sparfloxacin).” for “μg/ml.”

[9] = tested on: Sarcina lutea (ATCC 9341); experiment: as above; conditions: Micrococcus luteus, ATCC9341, Gram-positive reference strain
Description: as §1, with “μg/ml. Anti-bacterial activity of the compound having Formula […] was tested against several Gram-positive reference bacteria strains and compared to the anti-bacterial activity of three commercially available antibiotics (nadifloxacin, ofloxacin, and sparfloxacin).” for “μg/ml.”

[10] = tested on: Staphylococcus aureus (ATCC 25933); experiment: as above; conditions: ATCC25933, Gram-positive reference strain
Description: as §1, with “μg/ml. Anti-bacterial activity of the compound having Formula […] was tested against several Gram-positive reference bacteria strains and compared to the anti-bacterial activity of three commercially available antibiotics (nadifloxacin, ofloxacin, and sparfloxacin).” for “μg/ml.”

[11] = tested on: Staphylococcus aureus (FDA 209P); experiment: as above; conditions: FDA209P, Gram-positive reference strain
Description: as §1, with “μg/ml. Anti-bacterial activity of the compound having Formula […] was tested against several Gram-positive reference bacteria strains and compared to the anti-bacterial activity of three commercially available antibiotics (nadifloxacin, ofloxacin, and sparfloxacin).” for “μg/ml.”

[12] = tested on: Staphylococcus aureus (Smith); experiment: as above; conditions: Gram-positive reference strain
Description: as §1, with “μg/ml. Anti-bacterial activity of the compound having Formula […] was tested against several Gram-positive reference bacteria strains and compared to the anti-bacterial activity of three commercially available antibiotics (nadifloxacin, ofloxacin, and sparfloxacin).” for “μg/ml.”

[13] = tested on: Staphylococcus epidermidis (ATCC 12228); experiment: as above; conditions: ATCC12228, Gram-positive reference strain
Description: as §1, with “μg/ml. Anti-bacterial activity of the compound having Formula […] was tested against several Gram-positive reference bacteria strains and compared to the anti-bacterial activity of three commercially available antibiotics (nadifloxacin, ofloxacin, and sparfloxacin).” for “μg/ml.”

[14] = tested on: Streptococcus faecalis (ATCC 29212); experiment: as above; conditions: Enterococcus faecalis, ATCC29212, Gram-positive reference strain
Description: as §1, with “μg/ml. Anti-bacterial activity of the compound having Formula […] was tested against several Gram-positive reference bacteria strains and compared to the anti-bacterial activity of three commercially available antibiotics (nadifloxacin, ofloxacin, and sparfloxacin).” for “μg/ml.”

[15] = tested on: Streptococcus faecalis (IFO 12964); experiment: as above; conditions: Enterococcus faecalis, IFO12964, Gram-positive reference strain
Description: as §1, with “μg/ml. Anti-bacterial activity of the compound having Formula […] was tested against several Gram-positive reference bacteria strains and compared to the anti-bacterial activity of three commercially available antibiotics (nadifloxacin, ofloxacin, and sparfloxacin).” for “μg/ml.”

[16] = tested on: Streptococcus pneniae (IID 554); experiment: as above; conditions: IID554, Gram-positive reference strain
Description: as §1, with “μg/ml. Anti-bacterial activity of the compound having Formula […] was tested against several Gram-positive reference bacteria strains and compared to the anti-bacterial activity of three commercially available antibiotics (nadifloxacin, ofloxacin, and sparfloxacin).” for “μg/ml.”

[17] = tested on: Streptococcus pneumoniae (IID 553); experiment: as above; conditions: IID553, Gram-positive reference strain
Description: as §1, with “μg/ml. Anti-bacterial activity of the compound having Formula […] was tested against several Gram-positive reference bacteria strains and compared to the anti-bacterial activity of three commercially available antibiotics (nadifloxacin, ofloxacin, and sparfloxacin).” for “μg/ml.”

[18] = tested on: Streptococcus pyogenes (Cook); experiment: as above; conditions: Gram-positive reference strain
Description: as §1, with “μg/ml. Anti-bacterial activity of the compound having Formula […] was tested against several Gram-positive reference bacteria strains and compared to the anti-bacterial activity of three commercially available antibiotics (nadifloxacin, ofloxacin, and sparfloxacin).” for “μg/ml.”

[19] = tested on: Streptococcus pyogenes (IID 698); experiment: as above; conditions: IID698, Gram-positive reference strain
Description: as §1, with “μg/ml. Anti-bacterial activity of the compound having Formula […] was tested against several Gram-positive reference bacteria strains and compared to the anti-bacterial activity of three commercially available antibiotics (nadifloxacin, ofloxacin, and sparfloxacin).” for “μg/ml.”

[20] = tested on: Clostridium perfringens (KZ 210); experiment: microbe, parasite or virus in culture
[21] = tested on: Peptostreptococcus micros (GIFU 7824); experiment: In vitro anti-bacterial activity (MIC90), anaerobic bacteria; conditions: Parvimonas micra, anaerobic reference bacteria
[22] = tested on: Peptostreptococcus magnum (GAI 0664); experiment: as above; conditions: anaerobic reference bacteria
[23] = tested on: Propionibacterium acnes (GAI 5419); experiment: as above; conditions: Cutibacterium acnes, anaerobic reference bacteria
[24] = tested on: Propionibacterium acnes (ATCC 6919); experiment: as above; conditions: Cutibacterium acnes, ATCC6919, anaerobic reference bacteria
[25] = tested on: Propionibacterium acnes (ATCC 11828); experiment: as above; conditions: Cutibacterium acnes, ATCC11828, anaerobic reference bacteria
[26] = tested on: Bacteroides fragillis (GAI 0675); experiment: as above; conditions: anaerobic reference bacteria
[27] = tested on: Bacteroides thetaiotaomicron (GAI 0659); experiment: as above; conditions: Bacteroides thetaiotaomicron
[28] = tested on: Bacteroides vulgatus (GAI 0673); experiment: as above; conditions: Phocaeicola vulgatus, anaerobic reference bacteria
[29] = tested on: Veillonella parvula (GAI 5602); experiment: as above; conditions: anaerobic reference bacteria

| SMILES | MIC90 [1] | MIC90 [2] | MIC90 (Escherichia coli (O-1)) | MIC90 [3] | MIC90 [4] | MIC90 (Proteus rettgeri) | MIC90 [5] | MIC90 [6] | MIC90 [7] | MIC90 (Shigella flexneri (2b)) | MIC90 [8] | MIC90 [9] | MIC90 [10] | MIC90 [11] | MIC90 [12] | MIC90 [13] | MIC90 [14] | MIC90 [15] | MIC90 [16] | MIC90 [17] | also measured |
| --- | --- | --- | --- | --- | --- | --- | --- | --- | --- | --- | --- | --- | --- | --- | --- | --- | --- | --- | --- | --- | --- |
| CC1COc2c(N3CCN(C)CC3)c(F)cc3c(=O)c(C(=O)O)cn1c23 (stereo not shown) [Ofloxacin, ofloxacin] | 0.39 µg/mL (≈ 1.08 µM) | 0.2 µg/mL (≈ 0.553 µM) | 0.05 µg/mL (≈ 0.138 µM) | 0.024 µg/mL (≈ 0.0664 µM) | 0.05 µg/mL (≈ 0.138 µM) | 0.2 µg/mL (≈ 0.553 µM) | 3.13 µg/mL (≈ 8.66 µM) | 1.56 µg/mL (≈ 4.32 µM) | 0.1 µg/mL (≈ 0.277 µM) | 0.006 µg/mL (≈ 0.0166 µM) | 0.05 µg/mL (≈ 0.138 µM) | 3.13 µg/mL (≈ 8.66 µM) | 0.39 µg/mL (≈ 1.08 µM) | 0.2 µg/mL (≈ 0.553 µM) | 0.2 µg/mL (≈ 0.553 µM) | 0.78 µg/mL (≈ 2.16 µM) | 1.56 µg/mL (≈ 4.32 µM) | 1.56 µg/mL (≈ 4.32 µM) | 1.56 µg/mL (≈ 4.32 µM) | 1.56 µg/mL (≈ 4.32 µM) | MIC90 [18]: 0.78 µg/mL (≈ 2.16 µM); MIC90 [19]: 0.39 µg/mL (≈ 1.08 µM); MIC90 [20]: 0.78 µg/mL (≈ 2.16 µM); MIC90 [21]: 0.78 µg/mL (≈ 2.16 µM); MIC90 [22]: 0.39 µg/mL (≈ 1.08 µM); MIC90 [23]: 0.78 µg/mL (≈ 2.16 µM); MIC90 [24]: 0.78 µg/mL (≈ 2.16 µM); MIC90 [25]: 1.56 µg/mL (≈ 4.32 µM); MIC90 [26]: 1.56 µg/mL (≈ 4.32 µM); MIC90 [27]: 3.13 µg/mL (≈ 8.66 µM); MIC90 [28]: 3.13 µg/mL (≈ 8.66 µM); MIC90 [29]: 0.39 µg/mL (≈ 1.08 µM) |
| C[C@@H]1CN(c2c(F)c(N)c3c(=O)c(C(=O)O)cn(C4CC4)c3c2F)C[C@H](C)N1 [Sparfloxacin, sparfloxacin] | 0.024 µg/mL (≈ 0.0612 µM) | 0.1 µg/mL (≈ 0.255 µM) | 0.012 µg/mL (≈ 0.0306 µM) | 0.012 µg/mL (≈ 0.0306 µM) | 0.1 µg/mL (≈ 0.255 µM) | 0.2 µg/mL (≈ 0.51 µM) | 0.78 µg/mL (≈ 1.99 µM) | 0.78 µg/mL (≈ 1.99 µM) | 0.2 µg/mL (≈ 0.51 µM) | 0.006 µg/mL (≈ 0.0153 µM) | 0.024 µg/mL (≈ 0.0612 µM) | 1.56 µg/mL (≈ 3.98 µM) | 0.1 µg/mL (≈ 0.255 µM) | 0.024 µg/mL (≈ 0.0612 µM) | 0.05 µg/mL (≈ 0.127 µM) | 0.2 µg/mL (≈ 0.51 µM) | 0.39 µg/mL (≈ 0.994 µM) | 0.78 µg/mL (≈ 1.99 µM) | 0.39 µg/mL (≈ 0.994 µM) | 0.39 µg/mL (≈ 0.994 µM) | MIC90 [18]: 0.39 µg/mL (≈ 0.994 µM); MIC90 [19]: 0.2 µg/mL (≈ 0.51 µM); MIC90 [20]: 0.39 µg/mL (≈ 0.994 µM); MIC90 [21]: 0.78 µg/mL (≈ 1.99 µM); MIC90 [22]: 0.1 µg/mL (≈ 0.255 µM); MIC90 [23]: 0.39 µg/mL (≈ 0.994 µM); MIC90 [24]: 0.39 µg/mL (≈ 0.994 µM); MIC90 [25]: 0.78 µg/mL (≈ 1.99 µM); MIC90 [26]: 0.78 µg/mL (≈ 1.99 µM); MIC90 [27]: 0.78 µg/mL (≈ 1.99 µM); MIC90 [28]: 0.78 µg/mL (≈ 1.99 µM); MIC90 [29]: 0.2 µg/mL (≈ 0.51 µM) |
